# In US20090238810A1, “OPHTHALMIC COMPOSITION” (Menicon Co., Ltd., priority 2006, published 2009):
# Key:
# [1] = test system: corneal epithelium of DE mice; assay: Histopathologic study: corneal epithelial thickness in DE mice; assay type: in vivo, C57BL/6J mice
# Description: (§1) C57BL/6J mice aged 10 to 12 weeks were used for studies. All the studies were performed in accordance with the ARVO Statement for the Use of Animals in Ophthalmic and Vision Research.
# (§2) The mice were subcutaneously injected with 0.5 mg/0.2 ml of scopolamine hydrobromide four times a day for 5 days. Desiccating environmental stress was created by placing a mouse cage in a blower hood with continuous air flow blower (room temperature of […] and relative humidity of 60%±10%). Tear production of each mouse was evaluated before the treatment, and also evaluated on third and fifth days of the treatment.
# (§3) During the desiccation treatment, one of the eyes of each mouse was treated with eye drops including ApoA1 (Sigma-Aldrich, Japan) or with eye drops including ApoA1 and D-pantethine (Sigma-Aldrich, Japan), while PBS was administrated to the other eye of each mouse as a control. 5 μl of the respective eye drops was administered four times a day during the desiccation treatment for five days. All the ophthalmic compositions were formulated in PBS, and the osmolarity and the pH value of the compositions were adjusted to 290 to 300 mOsm/L and pH 7.4, respectively. […] To prepare one liter of 0.01 M PBS, there are needed the followings:
# Mice eyeballs were surgically excised, and fixed with neutral-buffered formalin (10%) and embedded in paraffin. Then, 5 μm thick histological sections were cut and stained with hematoxylin and eosin. […] Microphotometric measurement of the thickness was done by using OB-M, 1/100, micro, AX0001 (Olympus Optical Co. Ltd., Japan). The corneal epithelial thickness was measured to an accuracy of 10 μm.
# In this EXAMPLE, there were used 6 to 8 corneas of each of the following groups of mice: (a) normal mice, (b) DE mice, (c) DE mice treated with 0.04 w/v % of ApoA1, and (d) DE mice treated with PBS.
# [2] = test system: corneal epithelium of DE mice; assay: Corneal fluorescein staining in experimental mouse model of dry eye (DE mice); assay type: in vivo, C57BL/6J mice
# Description: as §1, §2, §3
# Corneal fluorescein staining was evaluated 10 minutes after topical application of 1 μL of 1% sodium fluorescein (Sigma-Aldrich, Japan) to mouse eyes, which were treated as described above, and examined under a light microscope (Leica Microsystems Inc., Deerfield, USA) and photographed with a digital camera (CAMEDIA, Olympus Optical Co. Ltd., Japan) fitted to the microscope.
# In TABLES 2 and 3 below, X represents a ratio of an area which was subjected to a punctuate staining to a total area of a cornea.
# [3] = DE mice, various concentrations
substance,measurement,setting,value
apolipoprotein A-1 [ApoA1],"most effective concentration of ApoA1, corneal epithelial thickness","[1]; 0.01, 0.04, 0.1 w/v % ApoA1 tested, DE mice (FIG. 15)",0.1 w/v %
same,thinning of the cell layers accompanied by detachment of the corneal epithelium,[1]; DE mice treated with 0.04 w/v % ApoA1 vs PBS (FIGS. 12 and 13),significantly greater in the PBS-treated eyes compared with the ApoA1-treated eyes
same,conclusion of corneal epithelial thickness experiments: restriction of thinning of corneal epithelium,[1]; [3],extremely effective
same,"most effective concentration of ApoA1, corneal staining scores","[2]; 0.01, 0.04 or 0.1 w/v % ApoA1 tested, DE mice (FIG. 10)",0.1 w/v %
same,conclusion of corneal fluorescein staining experiments: effect on dry eye syndrome,[2]; [3],significantly effective
same,"average corneal staining score, less than that of the PBS group","[2]; eye drops 0.04 w/v % ApoA1, 5 μl four times a day for five days, six DE mice, other eye PBS (FIG. 8)",about 25%
same,effect on corneal epithelium erosion due to desiccation (grading scores and quantitative measurement),"[2]; eye drops 0.04 w/v % ApoA1, DE mice",protective effects
same,"quantitative measurement of fluorescein stained area (NIH ImageJ), average score less than that of the PBS group","[2]; eye drops 0.04 w/v % ApoA1, DE mice, data not shown",20%
